Experimental data from article PMC9230136 (Pharmaceutics, 2022).

Columns and labels:
MDA-MB-231 = assay: Antiproliferative assay (resazurin, 72 h); format: cell-based, human; conditions: Homo sapiens, MDA-MB-231, mean ± SE, 72 h
Description: (§1) Colon adenocarcinoma (HT-29) and T-cell leukemia (Jurkat) cells were grown in RPMI-1640 medium (Gibco, Milano, Italy). Promyelocytic leukemia cells (HL-60), non-small cell lung carcinoma (A549), cervix carcinoma (HeLa) and breast adenocarcinoma (MDA-MB-231) cells were grown in DMEM medium (Gibco, Milano, Italy). Both media were supplemented with 115 units/mL of penicillin G (Gibco, Milano, Italy), 115 μg/mL of streptomycin (Invitrogen, Milano, Italy) and 10% fetal bovine serum (Invitrogen, Milano, Italy). All the cell lines used were purchased from the American Type Culture Collection (ATCC, Manassas, VA, USA). Stock solutions (10 mM) of the compounds were obtained by dissolving them in DMSO.
(§2) The cells were seeded in 96-well plates at the appropriate density for each cell line. After 24 h, the cells were treated by performing serial 5-fold dilutions of the tested compounds starting from a concentration of 10 μM. All experimental conditions were tested in triplicate for statistical analysis. The plates were incubated for 72 h at 37 °C in a humidified 5% CO2 atmosphere. At the end of the incubation period, 10 μL of 100 μg/mL resazurin solution was added to each well; then, the plate was re-incubated for 3–4 h. The fluorescence of the wells in each plate was monitored using a Spark 10 M spectrophotometer (Tecan Group Ltd., Mannedorf, Switzerland) with a 535 nm excitation wavelength and a 600 nm emission wavelength.

HeLa = assay: Antiproliferative assay (resazurin, 72 h); format: cell-based, human; conditions: Homo sapiens, HeLa
Description: as §1, §2

Jurkat = assay: Antiproliferative assay (resazurin, 72 h); format: cell-based, human; conditions: Homo sapiens, Jurkat, mean ± SE, 72 h
Description: as §1, §2

HT-29 = assay: Antiproliferative assay (resazurin, 72 h); format: cell-based, human; conditions: Homo sapiens, HT-29, mean ± SE, 72 h
Description: as §1, §2

A549 = assay: Antiproliferative assay (resazurin, 72 h); format: cell-based, human; conditions: Homo sapiens
Description: as §1, §2

| IC50 (MDA-MB-231; Table 2) | IC50 (HeLa; Table 2, mean ± SE) | IC50 (Jurkat; Table 2) | IC50 (HT-29; Table 2) | IC50 (A549; A549, Table 2, mean ± SE) | melting point | IC50 (MDA-MB-231; Table 1) | IC50 (HeLa; Table 1, mean ± SE) | IC50 (Jurkat; Table 1) | IC50 (HT-29; Table 1) | IC50 (A549; A549, Table 1, mean ± SE) | Structure (SMILES) |
| --- | --- | --- | --- | --- | --- | --- | --- | --- | --- | --- | --- |
| 3.09 ± 0.57 µM | 1.6 ± 0.07 µM | 2.38 ± 0.18 µM | 2.08 ± 0.14 µM | 1.78 ± 0.51 µM | 165 to 168 °C |  |  |  |  |  | C#Cc1cccc(Nc2cc(C)nc3nc(NCc4ccc5c(c4)OCO5)nn23)c1 [Compound 8p, N^2-(Benzo[d][1,3]dioxol-5-ylmethyl)-N^7-(3-ethynylphenyl)-5-methyl-[1,2,4]triazolo [1,5-a]pyrimidine-2,7-diamine] |
| 9.25 ± 0.12 µM | 5.88 ± 2.96 µM | 5.98 ± 1.58 µM | 9.11 ± 0.93 µM | 2.44 ± 0.13 µM | 174 to 176 °C |  |  |  |  |  | Cc1cc(Nc2cccc(F)c2)n2nc(NCc3ccc4c(c3)OCO4)nc2n1 [Compound 8h, N^2-(Benzo[d][1,3]dioxol-5-ylmethyl)-N^7-(3-fluorophenyl)-5-methyl-[1,2,4]triazolo [1,5-a]pyrimidine-2,7-diamine] |
|  |  |  |  |  | 182 to 184 °C | 2.99 ± 0.18 µM | > 10 µM | 4.44 ± 0.47 µM | > 10 µM | 1.92 ± 0.09 µM | COc1cc(Nc2cc(C)nc3nc(NCc4ccccc4C)nn23)cc(OC)c1OC [Compound 7r, 5-Methyl-N^2-(2-methylbenzyl)-N^7-(3,4,5-trimethoxyphenyl)-[1,2,4]triazolo [1,5-a]pyrimidine-2,7-diamine] |
| 1.71 ± 0.06 µM | 0.42 ± 0.05 µM | 0.5 ± 0.06 µM | 0.49 ± 0.06 µM | 0.61 ± 0.2 µM | 190 to 192 °C |  |  |  |  |  | C#Cc1cccc(Nc2cc(C)nc3nc(NCc4ccc(Cl)cc4)nn23)c1 [Compound 8c, N^7-(3-Ethynylphenyl)-N^2-(4-chlorobenzyl)-5-methyl-[1,2,4]triazolo [1,5-a]pyrimidine-2,7-diamine] |
|  |  |  |  |  | 178 to 180 °C | 0.56 ± 0.067 µM | 2.98 ± 0.32 µM | 6.85 ± 0.63 µM | 3.57 ± 0.48 µM | 5.28 ± 0.65 µM | COc1cc(Nc2cc(C)nc3nc(NCc4cccnc4)nn23)cc(OC)c1OC [Compound 7k, 5-Methyl-N^2-(pyridin-3-ylmethyl)-N^7-(3,4,5-trimethoxyphenyl)-[1,2,4]triazolo [1,5-a]pyrimidine-2,7-diamine] |
|  |  |  |  |  | 241 °C | 1.43 ± 0.14 µM | 0.52 ± 0.06 µM | 0.59 ± 0.01 µM | 0.82 ± 0.07 µM | 2.3 ± 0.12 µM | COc1cc(Nc2cc(C)nc3nc(Nc4ccccc4)nn23)cc(OC)c1OC [Compound 7d, 5-Methyl-N2-phenyl-N7-(3,4,5-trimethoxyphenyl)-[1,2,4]triazolo [1,5-a]pyrimidine-2,7-diamine] |
| 3.99 ± 0.06 µM | 1.28 ± 0.3 µM | 1.18 ± 0.11 µM | 2.24 ± 0.12 µM | 2.32 ± 0.23 µM | 150 to 152 °C |  |  |  |  |  | Cc1cc(Nc2cccc(Br)c2)n2nc(NCc3ccc4c(c3)OCO4)nc2n1 [Compound 8m, N^2-(Benzo[d][1,3]dioxol-5-ylmethyl)-N^7-(3-bromophenyl)-5-methyl-[1,2,4]triazolo [1,5-a]pyrimidine-2,7-diamine] |
|  |  |  |  |  | 196 to 198 °C | > 10 µM | 5.81 ± 0.48 µM | 5.94 ± 0.5 µM | > 10 µM | > 10 µM | COc1cc(Nc2cc(C)nc3nc(NCCc4ccc(Cl)cc4)nn23)cc(OC)c1OC [Compound 7ab, N^2-(4-Chlorophenethyl)-5-methyl-N^7-(3,4,5-trimethoxyphenyl)-[1,2,4]triazolo [1,5-a]pyrimidine-2,7-diamine] |
|  |  |  |  |  | 247 °C | 0.71 ± 0.07 µM | 0.39 ± 0.02 µM | 0.82 ± 0.001 µM | 0.69 ± 0.06 µM | 1.02 ± 0.08 µM | COc1cc(Nc2cc(C)nc3nc(Nc4ccc(F)cc4)nn23)cc(OC)c1OC [Compound 7e, N2-(4-Fluorophenyl)-5-methyl-N7-(3,4,5-trimethoxyphenyl)-[1,2,4]triazolo [1,5-a]pyrimidine-2,7-diamine] |
